Laboratory results taken from US9302999B2, “Substituted triazoles as herbicides” (E. I. DU PONT DE NEMOURS AND COMPANY, priority 2012, dated 2016).

Experiments:
Type in all cases: in vivo
[1] = tested on: ducksalad (Heteranthera limosa); test: Test C flooded paddy test: ducksalad; conditions: scale 0 to 100 (0 no effect, 100 complete control)
How it was run: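 Plants were grown to the 2-leaf stage, pots flooded to 3 cm above soil, and test compounds applied directly to the paddy water, with that depth held throughout. After 13 to 15 days in a greenhouse, injury was visually rated against controls on a 0 (no effect) to 100 (complete control) scale.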

[2] = tested on: bromegrass, downy (downy bromegrass, Bromus tectorum); test: Test C pre-/postemergence: bromegrass, downy
How it was run: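 Preemergence on seeds in loam/sand, postemergence on 2–18 cm (1–4-leaf) plants in peat-based medium; compounds in non-phytotoxic solvent with surfactant. After 13–15 days in greenhouse, visual rating versus controls, 0 (no effect) to 100 (complete control).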

[3] = tested on: woolly cupgrass (Eriochloa villosa); test: Test C pre-/postemergence: woolly cupgrass
Text: Seeds of plant species selected from blackgrass (Alopecurus myosuroides), bromegrass, downy (downy bromegrass, Bromus tectorum), foxtail, green (green foxtail, Setaria viridis), ryegrass, Italian (Italian ryegrass, Lolium multiflorum), winter wheat (Triticum aestivum), wild oat (Avena fatua), galium (catchweed bedstraw, Galium aparine), bermudagrass (Cynodon dactylon), surinam grass (Brachiaria decumbens), cocklebur (common cocklebur, Xanthium strumarium), corn (Zea mays), large crabgrass (Digitaria sanguinalis), woolly cupgrass (Eriochloa villosa), foxtail, giant (giant foxtail, Setaria faberii), goosegrass (Eleusine indica), johnsongrass (Sorghum halepense), kochia (Kochia scoparia), lambsquarters (Chenopodium album), morningglory (Ipomoea coccinea), nightshade (eastern black nightshade, Solanum ptycanthum), nutsedge, yellow (yellow nutsedge, Cyperus esculentus), pigweed (Amaranthus retroflexus), ragweed (common ragweed, Ambrosia elation), soybean (Glycine max), common (oilseed) sunflower (Helianthus annuus), Russian thistle (Salsola kali) and velvetleaf (Abutilon theophrasti) were planted into a blend of loam soil and sand and treated preemergence with test chemicals formulated in a non-phytotoxic solvent mixture which included a surfactant.
At the same time, plants selected from these crop and weed species and also barley (winter barley, Hordeum vulgare), canarygrass (Phalaris minor), chickweed (common chickweed, Stellaria media) windgrass (Apera spica-venti) and deadnettle (henbit deadnettle, Lamium amplexicaule) were planted in pots containing Redi-Earth® planting medium (Scotts Company, 14111 Scottslawn Road, Marysville, Ohio 43041) comprising spaghnum peat moss, vermiculite, wetting agent and starter nutrients and treated with postemergence applications of test chemicals formulated in the same manner. Plants ranged in height from 2 to 18 cm (1- to 4-leaf stage) for postemergence treatments.
(§1) Treated plants and controls were maintained in a greenhouse for 13 to 15 days, after which time all species were compared to controls and visually evaluated. Plant response ratings, summarized in Table C, are based on a scale of 0 to 100 where 0 is no effect and 100 is complete control. A dash (-) response means no test result.

[4] = tested on: foxtail, green (green foxtail Setaria viridis); test: Test F pre-/postemergence: foxtail, green; conditions: Preemergence
Text: (§2) Seeds of plant species selected from corn (Zea mays), soybean (Glycine max), velvetleaf (Abutilon theophrasti), lambsquarters (Chenopodium album), poinsettia, wild (wild poinsettia, Euphorbia heterophylla), pigweed, palmer (palmer pigweed, Amaranthus palmeri), waterhemp (common waterhemp, Amaranthus rudis), surinam grass (Brachiaria decumbens), crabgrass, Brazil (Brazilian crabgrass, Digitaria horizontalis), panicum, fall (fall panicum Panicum dichotomiflorum), crabgrass, large (large crabgrass, Digitaria sanguinalis), foxtail, giant (giant foxtail, Setaria faberii), foxtail, green (green foxtail Setaria viridis), goosegrass (Eleusine indica), ragweed (common ragweed, Ambrosia elatior), barnyardgrass (Echinochloa crus-galli), sandbur (southern sandbur, Cenchrus echinatus), arrowleaf sida (Sida rhombifolia), ryegrass, Italian (Italian ryegrass, Lolium multiflorum), dayflower, VA (Virginia (VA) dayflower, Commelina virginica), field bindweed (Convolvulus arvensis), cocklebur (common cocklebur, Xanthium strumarium), morningglory (Ipomoea coccinea), nightshade (eastern black nightshade, Solanum ptycanthum), kochia (Kochia scoparia), nutsedge, yellow (yellow nutsedge, Cyperus esculentus), johnsongrass (Sorghum halepense), smartweed (ladysthumb smartweed, Polygonum persicaria), and beggarticks (hairy beggarticks, Bidens pilosa), were planted into a silt loam soil and treated preemergence with test chemicals formulated in a non-phytotoxic solvent mixture which included a surfactant. At the same time, plants selected from these crop and weed species and also pigweed (Amaranthus retroflexus), waterhemp_RES1 (ALS/Triazine resistant common waterhemp, Amaranthus rudis) and waterhemp_RES2 (ALS/HPPD resistant common waterhemp, Amaranthus rudis) were planted in pots containing a planting medium comprising spaghnum peat moss, vermiculite, wetting agent and starter nutrients treated with postemergence applications of some of the test chemicals formulated in the same manner. Plants ranged in height from 2 to 18 cm for postemergence treatments (1- to 4-leaf stage).
as §1, with “14” for “13”, “21” for “15”, “E,” for “C,”

[5] = tested on: morningglory (Ipomoea coccinea); test: Test F pre-/postemergence: morningglory; conditions: Preemergence
Text: as §2
as §1, with “14” for “13”, “21” for “15”, “E,” for “C,”

kochia (Kochia scoparia) = test: Test F pre-/postemergence: kochia; conditions: Preemergence
Text: as §2
as §1, with “14” for “13”, “21” for “15”, “E,” for “C,”

[6] = tested on: pigweed, palmer (palmer pigweed, Amaranthus palmeri); test: Test F pre-/postemergence: pigweed, palmer
Text: as §2
as §1, with “14” for “13”, “21” for “15”, “E,” for “C,”

[7] = Flood (flooded paddy test), 125 g ai/ha, visual rating after 13 to 15 days
[8] = Flood (flooded paddy test), 250 g ai/ha, visual rating after 13 to 15 days
[9] = Postemergence, 31 g ai/ha, scale 0 to 100 (0 no effect, 100 complete control)
[10] = Postemergence, 62 g ai/ha, scale 0 to 100 (0 no effect, 100 complete control)
[11] = Postemergence, 125 g ai/ha, scale 0 to 100, 0 no effect, 100 complete control
[12] = Postemergence, 250 g ai/ha, scale 0 to 100
[13] = Preemergence, 31 g ai/ha, scale of 0 to 100, 0 is no effect, 100 is complete control
[14] = Preemergence, 62 g ai/ha, scale 0 to 100, 0 no effect, 100 complete control
[15] = Preemergence, 125 g ai/ha, scale 0 to 100, 0 no effect, 100 complete control
[16] = Preemergence, 250 g ai/ha, scale 0 to 100, 0 no effect, 100 complete control
[17] = Preemergence, 62 g ai/ha, scale of 0 to 100, 0 is no effect, 100 is complete control
[18] = 16 g ai/ha, scale 0 to 100, 0 no effect, 100 complete control
[19] = 31 g ai/ha, scale 0 to 100, 0 no effect, 100 complete control

Row | Structure (SMILES) | Plant response rating, Ducksalad [1, 7] | Plant response rating, Ducksalad [1, 8] | Plant response rating, Ducksalad ([1]; Flood, 62 g ai/ha) | Plant response rating, Bromegrass, Downy [2, 9] | Plant response rating, Bromegrass, Downy [2, 10] | Plant response rating, Bromegrass, Downy [2, 11] | Plant response rating, Bromegrass, Downy [2, 12] | Plant response rating, Bromegrass, Downy [2, 13] | Plant response rating, Bromegrass, Downy [2, 14] | Plant response rating, Bromegrass, Downy [2, 15] | Plant response rating, Bromegrass, Downy [2, 16] | Plant response rating, Cupgrass, Woolly [3, 9] | Plant response rating, Cupgrass, Woolly [3, 10] | Plant response rating, Cupgrass, Woolly [3, 11] | Plant response rating, Cupgrass, Woolly [3, 12] | Plant response rating, Cupgrass, Woolly [3, 13] | Plant response rating, Cupgrass, Woolly [3, 17] | Plant response rating, Cupgrass, Woolly [3, 15] | Plant response rating, Cupgrass, Woolly [3, 16] | Plant response rating, Foxtail, Green [4, 18] | further results
1 | Cc1nn(-c2ccc(C(F)(F)F)cn2)nc1Cc1cccc(C(F)(F)F)c1 [Compound 106] | 70 | 70 | 60 | 30 | 35 | 40 | 40 | 0 | 5 | 40 | 60 | 5 | 45 | 45 | 50 | 5 | 60 | 80 | 90 | – | Plant response rating, Ducksalad ([1]; Flood, 31 g ai/ha): 0
2 | Cc1nn(-c2ccc(C(F)(F)F)cc2)nc1Oc1ccnc(C(F)(F)F)c1 [Compound 120] | 80 | 85 | 70 | 15 | 15 | 30 | – | 45 | 85 | 90 | 90 | 10 | 10 | 40 | 45 | 90 | 95 | 98 | 98 | – | –
3 | COc1nn(-c2cccc(F)c2)nc1Cc1ccnc(C(F)(F)F)c1 [Compound 139] | – | – | – | 5 | 10 | 15 | 30 | 0 | – | – | 85 | 15 | 30 | 50 | – | 30 | 40 | 75 | 90 | 10 | Plant response rating, Foxtail, Green [4, 19]: 35; Plant response rating, Foxtail, Green ([4]; 62 g ai/ha, scale 0 to 100): 98; Plant response rating, Foxtail, Green ([4]; 125 g ai/ha, scale 0 to 100): 100; Plant response rating, Foxtail, Green ([4]; 250 g ai/ha, scale 0 to 100): 100; Plant response rating, Bromegrass, Downy [2, 17]: 20; Plant response rating, Morningglory [5, 18]: 0; Plant response rating, Morningglory [5, 19]: 0; Plant response rating, Morningglory ([5]; 125 g ai/ha, scale 0 to 100): 5; Plant response rating, Morningglory ([5]; 250 g ai/ha, scale 0 to 100): 20; Plant response rating, Kochia (kochia (Kochia scoparia); [18]): 0; Plant response rating, Kochia (kochia (Kochia scoparia); [19]): 0; Plant response rating, Kochia (kochia (Kochia scoparia); 62 g ai/ha, scale 0 to 100): 35; Plant response rating, Kochia (kochia (Kochia scoparia); 125 g ai/ha, scale 0 to 100): 90; Plant response rating, Kochia (kochia (Kochia scoparia); 250 g ai/ha, scale 0 to 100): 98
4 | Cc1nn(-c2ccnc(Cl)c2)nc1Cc1ccnc(C(F)(F)F)c1 [Compound 141] | – | – | – | 25 | 30 | 30 | 45 | – | – | – | – | 15 | 20 | 30 | 45 | – | – | – | – | – | Plant response rating, Pigweed, Palmer ([6]; Postemergence, 8 g ai/ha, scale 0 to 100): 95; Plant response rating, Pigweed, Palmer ([6]; Postemergence, 16 g ai/ha, scale 0 to 100): 95; Plant response rating, Pigweed, Palmer ([6]; Postemergence, 31 g ai/ha, scale 0 to 100): 95; Plant response rating, Pigweed, Palmer ([6]; Postemergence, 62 g ai/ha, scale 0 to 100): 100; Plant response rating, Pigweed, Palmer ([6]; Postemergence, 125 g ai/ha, scale 0 to 100): 100
5 | Cc1nn(-c2ccc(F)cc2F)nc1Oc1ccnc(C(F)(F)F)c1 [Compound 146] | – | – | – | – | – | – | – | 0 | – | 15 | 80 | – | – | – | – | 40 | 45 | 90 | 100 | 20 | Plant response rating, Foxtail, Green [4, 19]: 20; Plant response rating, Foxtail, Green ([4]; 62 g ai/ha, scale 0 to 100): 50; Plant response rating, Foxtail, Green ([4]; 125 g ai/ha, scale 0 to 100): 100; Plant response rating, Foxtail, Green ([4]; 250 g ai/ha, scale 0 to 100): 100; Plant response rating, Pigweed, Palmer ([6]; Preemergence, 16 g ai/ha, scale 0 to 100, 0 no effect, 100 complete control): 85; Plant response rating, Pigweed, Palmer ([6]; Preemergence, 31 g ai/ha, scale 0 to 100, 0 no effect, 100 complete control): 100; Plant response rating, Pigweed, Palmer ([6]; Preemergence, 125 g ai/ha, scale 0 to 100): 100; Plant response rating, Pigweed, Palmer ([6]; Preemergence, 250 g ai/ha, scale 0 to 100): 100; Plant response rating, Bromegrass, Downy [2, 17]: 0; Plant response rating, Morningglory [5, 18]: 0; Plant response rating, Morningglory [5, 19]: 0; Plant response rating, Morningglory ([5]; 125 g ai/ha, scale 0 to 100): 0; Plant response rating, Morningglory ([5]; 250 g ai/ha, scale 0 to 100): 25; Plant response rating, Kochia (kochia (Kochia scoparia); [18]): 0; Plant response rating, Kochia (kochia (Kochia scoparia); [19]): 5; Plant response rating, Kochia (kochia (Kochia scoparia); 62 g ai/ha, scale 0 to 100): 30; Plant response rating, Kochia (kochia (Kochia scoparia); 125 g ai/ha, scale 0 to 100): 50; Plant response rating, Kochia (kochia (Kochia scoparia); 250 g ai/ha, scale 0 to 100): 98
